US8846928B2 (Portola Pharmaceuticals, Inc., priority 2010, dated 2014)

target: T1, full length active recombinant SYK enzyme (Homo sapiens, UniProt P43405); experiment: Inhibition of Syk tyrosine phosphorylation activity (LANCE TR-FRET kinase assay); type: biochemical
T1 construct: full length active recombinant SYK enzyme (Millipore, Calif.); purchased Millipore

SMILES | IC50 [nM]
CC[C@@H](Nc1nc(Nc2cccc3c2ccn3C)c(C(N)=O)cc1F)C(N)=O [Example 243, (R)-6-(1-amino-1-oxobutan-2-ylamino)-5-fluoro-2-(1-methyl-1H-indol-4-ylamino)nicotinamide] | 10 to 100
NC(=O)c1ccc(N[C@@H]2CCCC[C@@H]2N)nc1Nc1cnc2ccncc2c1 [Example 406, 2-(1,6-naphthyridin-3-ylamino)-6-((1R,2S)-2-aminocyclohexylamino)nicotinamide] | 10 to 100
COC[C@H](N)CNc1ccc(C(N)=O)c(Nc2cccc(C)c2)n1 [Example 103, (R)-2-(m-toluidino)-6-(2-amino-3-methoxypropylamino)nicotinamide] | 100 to 1000
CC[C@H](CN)Nc1nc(Nc2ccc3ncsc3c2)c(C(N)=O)cc1F [Example 93, (R)-6-(1-aminobutan-2-ylamino)-2-(benzo[d]thiazol-6-ylamino)-5-fluoronicotinamide] | 1 to 10
NC(=O)c1cc(F)c(N[C@@H]2CCCC[C@@H]2N)nc1Nc1ccccc1 [Example 312, 6-((1R,2S)-2-aminocyclohexylamino)-5-fluoro-2-(phenylamino)nicotinamide] | 1 to 10
NC(=O)c1cc(C(N)=O)c(N[C@@H]2CCCC[C@@H]2N)nc1Nc1cccc(-n2nccn2)c1 [Example 116, 2-(3-(2H-1,2,3-triazol-2-yl)phenylamino)-6-((1R,2S)-2-aminocyclohexylamino)pyridine-3,5-dicarboxamide] | 100 to 1000
Cc1cc(Nc2cc(N[C@@H](C(N)=O)C3CC3)ccc2C(N)=O)sn1 [Example 34] | 10 to 100
